Results taken from publication PMC12212627, “Machine Learning-Based Virtual Screening of Antibacterial Agents against Methicillin-Susceptible and Resistant Staphylococcus aureus” (Journal of Chemical Information and Modeling, 2024).
Converted amounts (≈) assume the structure as drawn.

What was measured:
[1] = Cytotoxicity, colorimetric MTT assay; assay type: cell-based; conditions: African green monkey, Vero (ATCC CCL-81) cells, 72 h incubation
Experimental: As for the cytotoxic concentration of 50% (CC50) determination, the Vero (ATCC CCL-81) cell line was cultured in Eagle’s Minimum Essential Medium (MEM) (Cultilab, Brazil). The medium was supplemented with 5% fetal bovine serum (FBS) (Cultilab, Brazil), in addition to 100 IU/mL penicillin (Cellofarm, Brazil), 100 μg/mL streptomycin (Merck, Germany), and 0.25 μg/mL amphotericin B (Cultilab, Brazil). Cells were seeded in 96-well microplates (4.0 × 10^4 cells per well) and incubated at 37 °C and 5% CO2 atmosphere. After 24 h of incubation, 200 μL of fresh medium containing a serial dilution of the compounds (100–1.56 μM) was added to the plates. Serial dilutions of DMSO were used as vehicle controls. After 72 h of incubation under the same conditions, 100 μL of 3-(4,5-dimethylthiazol-2-yl)–2,5-diphenyltetrazolium bromide (MTT) in MEM (0.5 mg/mL) was added to each well. After 3 h of incubation with MTT (ThermoFischer Scientific), the medium was removed, and 100 μL of DMSO was added to each well to solubilize the formazan crystals. After a brief incubation under shaking for 20 min, the absorbance at 570 nm of each well was read using a spectrophotometer (VersaMax, Molecular Devices). The percentages of inhibition of cell viability were calculated by using the vehicle control. The cytotoxic concentration of 50% (CC50) is defined as the lowest concentration of a given compound that can reduce the viability of cultured cells by 50%. Posteriorly, the selectivity index (SI), that is, the ratio between the CC50 and MIC values of each active compound, was calculated. All conditions were tested in triplicate and at least two independent assays. The overall procedures applied in this work are illustrated in Figure .

[2] = tested on: clinical strain of MRSA n° 6154; assay: Broth microdilution (CLSI): screening at 100 μM and MIC, MRSA clinical strain 6154; assay type: cell-based, Staphylococcus aureus; conditions: for MIC: broth microdilution, 24 h, 37 °C; for % of growth inhibition, MRSA (6154): at the concentration given (MIC or 100 μM where MIC >100)
Experimental: (§1) E. coli (ATCC n° […]) – a TEM-1 β-lactamase producing strain, S. aureus (ATCC n° 29213) – herein referred to as MSSA, MRSA (ATCC n° 43300), and two clinical strains of MRSA (n° 5749 and 6154) were used in the biological assays. The antibacterial activity and minimal inhibitory concentration (MIC) of the screened compounds were evaluated with the broth microdilution method in 96-well microplates, according to the Clinical and Laboratory Standards Institute (CLSI) protocol. Initially, compounds were evaluated in a screening assay to identify promising hits. The compounds were dissolved in dimethyl sulfoxide (DMSO) and then diluted in Mueller Hinton broth (MHB; Oxoid, Thermo Scientific, U.K.) to a concentration of 200 μM. After the addition of 100 μL to each well, the same volume of bacterial suspension containing 10^5 CFU/mL was added to each of the previous solutions, resulting in a final compound concentration of 100 μM. A viability control (bacterial suspension only), inhibition controls (MHB containing five times the MIC of penicillin G for MSSA, vancomycin for MRSA strains, and streptomycin for E. coli), a sterility control (medium only), and a vehicle control (DMSO 2% v/v) were included in each assay microplate. After 24 h of incubation at 37 °C, the microplates were visually inspected for inhibition of bacterial growth, and the absorbance at 600 nm of each well was read using a microplate reader spectrophotometer (VersaMax, Molecular Devices, CA). The percentage of growth inhibition was calculated as the percentage of growth reduction compared with the vehicle control. Wells showing no visual bacterial growth (no turbidity) were considered hits. The MIC of the promising compounds in the initial screening were tested as previously described, with a serial dilution of each compound (100–1.56 μM). All conditions were tested in triplicate from at least three independent assays.

[3] = tested on: clinical strain of MRSA n° 5749; assay: Broth microdilution (CLSI): screening at 100 μM and MIC, MRSA clinical strain 5749; assay type: cell-based, Staphylococcus aureus; conditions: for % of growth inhibition, MRSA (5749): at the concentration given (MIC or 100 μM where MIC >100)
Experimental: as §1

MRSA (ATCC n° 43300) = assay: Broth microdilution (CLSI): screening at 100 μM and MIC, MRSA reference strain; assay type: cell-based, Staphylococcus aureus; conditions: for MIC: broth microdilution, 24 h, 37 °C; for % of growth inhibition, MRSA (ATCC 43300): at the concentration given (MIC or 100 μM where MIC >100)
Experimental: as §1

[4] = tested on: S. aureus (ATCC n° 29213), MSSA; assay: Broth microdilution (CLSI): screening at 100 μM and MIC, MSSA; assay type: cell-based, Staphylococcus aureus; conditions: for MIC: broth microdilution, 24 h, 37 °C; for % of growth inhibition, MSSA (ATCC 29123): at the concentration (MIC)
Experimental: as §1

[5] = tested on: E. coli (ATCC 35218), TEM-1 β-lactamase producing strain; assay: Broth microdilution (CLSI): screening at 100 μM and MIC, E. coli; assay type: cell-based; conditions: broth microdilution, 24 h, 37 °C
Experimental: as §1

MSSA and MRSA strains = assay: Broth microdilution, results summed up over MSSA and MRSA strains; assay type: cell-based, Staphylococcus aureus; conditions: Staphylococcus aureus; span over the strains evaluated; read-out: MIC values against MSSA and all MRSA strains
Experimental: as §1

[6] = pharmacokinetic properties already determined; cited from earlier work
[7] = Staphylococcus aureus, MRSA, broth microdilution, 24 h, 37 °C
[8] = Staphylococcus aureus, ATCC 43300 / MRSA
[9] = Staphylococcus aureus, ATCC 29123 / MSSA

CC(=O)O[C@@H]1[C@H](OC(C)=O)[C@H](C)O[C@H](n2cc(COC3=CC(=O)c4ccccc4C3=O)nn2)[C@H]1OC(C)=O [Compound 1, 2-[1-(2,3,4-tri-O-acetyl-6-deoxy-β-L-galactopyranosyl)-1,2,3-triazol-4-(methyl)oxy]-1,4-naphtoquinone]
CC50 at 72 h [1]: 33.8 ± 3.44 µM
MIC ([2]; Staphylococcus aureus, MRSA): > 100 µM
% of growth inhibition, MRSA (6154) [2]: 50.60%
MIC [3, 7]: > 100 µM
% of growth inhibition, MRSA (5749) [3]: 41.76%
MIC (MRSA (ATCC n° 43300); [8]): > 100 µM
% of growth inhibition, MRSA (ATCC 43300) (MRSA (ATCC n° 43300)): 70.02%
MIC [4, 9]: 100 µM (≈ 52.7 µg/mL)
% of growth inhibition, MSSA (ATCC 29123) [4]: 99.60%
MIC, E. coli (ATCC 35218) [5]: −
MIC (MSSA and MRSA strains): ≥ 100 µM

C#CCOC1=CC(=O)c2ccccc2C1=O [Compound 3, 2-[(prop-2-yn-1-yl)oxy]-1,4-naphtoquinone]
CC50 at 72 h [1]: 21.2 ± 8.89 µM
MIC ([2]; Staphylococcus aureus, MRSA): 50 µM (≈ 10.6 µg/mL)
% of growth inhibition, MRSA (6154) [2]: > 99.9%
MIC [3, 7]: 50 µM (≈ 10.6 µg/mL)
% of growth inhibition, MRSA (5749) [3]: > 99.9%
MIC (MRSA (ATCC n° 43300); [8]): 50 µM (≈ 10.6 µg/mL)
% of growth inhibition, MRSA (ATCC 43300) (MRSA (ATCC n° 43300)): > 99.9%
MIC [4, 9]: 50 µM (≈ 10.6 µg/mL)
% of growth inhibition, MSSA (ATCC 29123) [4]: 96.52%
MIC, E. coli (ATCC 35218) [5]: −
MIC (MSSA and MRSA strains): 50 µM (≈ 10.6 µg/mL)

C=C/C(C)=C\C[C@]1(C)[C@H](C)C[C@H](O)[C@@]23C(=C[C@H](OC(=O)CCC)C[C@@H]12)[C@@H](OC(C)=O)O[C@H]3OC(C)=O [Compound 5, [(1S,3R,5R,6aS,7R,8R,10S,10aS)-1,3-diacetyloxy-10-hydroxy-7,8-dimethyl-7-[(2Z)-3-methylpenta-2,4-dienyl]-1,3,5,6,6a,8,9,10-octahydrobenzo[d][2]benzofuran-5-yl] butanoate]
MIC ([2]; Staphylococcus aureus, MRSA): 100 µM (≈ 50.5 µg/mL)
% of growth inhibition, MRSA (6154) [2]: > 99.9%
cell permeability [6]: high
stability in the gastrointestinal tract [6]: degradation in the gastrointestinal tract
MIC, MRSA (5749) ([3]; broth microdilution, 24 h, 37 °C): −
MIC (MRSA (ATCC n° 43300); [8]): 100 µM (≈ 50.5 µg/mL)
% of growth inhibition, MRSA (ATCC 43300) (MRSA (ATCC n° 43300)): > 99.9%
inhibition at 100 µM ([4]; Staphylococcus aureus, ATCC 29123 / MSSA, at 100 μM, below the MIC, read-out: % of growth inhibition, MSSA (ATCC 29123), second line): 27.4%
MIC [4, 9]: 200 µM (≈ 101 µg/mL)
% of growth inhibition, MSSA (ATCC 29123) [4]: 96.43%
MIC, E. coli (ATCC 35218) [5]: −

O=C(NCCCOCCCNC(=O)c1ccc(-c2ccc(Br)cc2)o1)c1ccc(-c2ccc(Br)cc2)o1 [Compound 6, N,N′-(oxybis(propane-3,1-diyl))-bis(5-(4-bromophenyl)furan-2-carboxamide)]
CC50 at 72 h [1]: 43.4 ± 4.66 µM
inhibition at 50 µM ([2]; Staphylococcus aureus, MRSA, at 50 μM, below the MIC, read-out: % of growth inhibition, MRSA (6154), second line): 78.4%
MIC ([2]; Staphylococcus aureus, MRSA): 100 µM (≈ 63 µg/mL)
% of growth inhibition, MRSA (6154) [2]: > 99.9%
inhibition at 50 µM ([3]; Staphylococcus aureus, MRSA, at 50 μM, below the MIC, read-out: % of growth inhibition, MRSA (5749), second line): 73.5%
MIC [3, 7]: 100 µM (≈ 63 µg/mL)
% of growth inhibition, MRSA (5749) [3]: > 99.9%
inhibition at 50 µM (MRSA (ATCC n° 43300); Staphylococcus aureus, ATCC 43300 / MRSA, at 50 μM, below the MIC, read-out: % of growth inhibition, MRSA (ATCC 43300), second line): 85.3%
MIC (MRSA (ATCC n° 43300); [8]): 100 µM (≈ 63 µg/mL)
% of growth inhibition, MRSA (ATCC 43300) (MRSA (ATCC n° 43300)): > 99.9%
MIC [4, 9]: 50 µM (≈ 31.5 µg/mL)
% of growth inhibition, MSSA (ATCC 29123) [4]: > 99.9%
MIC, E. coli (ATCC 35218) [5]: −
MIC (MSSA and MRSA strains): 50 to 100 µM (≈ 31.5 to 63 µg/mL)
